Measurements taken from patent US6534082B1, “Method of treating disorders of the eye” (Duke University, priority 1994, dated 2003).

Test system: enucleated cow eyes
Experiment: Constant pressure perfusion of enucleated cow eyes, outflow facility
Conditions: 5 h perfusion, 22° centigrade, 15 mm of mercury; for increase in outflow facility at the end of the experiment versus initial baseline: 0.125 mM drug in perfusion medium, ± SEM; for increase in outflow facility at the end of the experiment versus initial baseline, drug plus cysteine: 0.125 mM drug plus 0.625 mM cysteine
Experimental: Enunciated cow eyes were obtained from a local commercial abattoir, immediately chilled, and then perfused within twenty-four hours using a standard constant pressure perfusion technique. Pairs of eyes from a single animal were used for each experiment and subjected to the same manipulation except for the experimental drug in the experimental eye of perfusion. Briefly, a 5 mm central cornea trephine button was removed from each eye. Radial iridotomy was performed to prevent artificial deepening of the anterior chamber during perfusion. The anterior chamber was then gently irrigated with perfusion medium to remove pigment which might have been liberated by the iridotomy. A Grant stainless steel fitting was then placed into the cornea and connected by twenty-three gauge polyethylene tubing to the fluid reservoir of the perfusion apparatus.
The perfusion medium was Dulbecco's phosphate-buffered salt solution (PBS) (Grand Island Biological Company, Grand Island, N.Y.) with added 5.5 mM glucose. All solutions were filtered through a 0.2 μm Nuclepore filter.
The initial flow value was determined after the eyes had been perfused for one hour which allowed sufficient time to achieve adequate stability. The corneal fitting was removed, and the anterior chamber was gently emptied and refilled with fresh perfusion medium with added drug or sham solution. The corneal fitting was replaced and the eye was perfused for an additional five hours. The outflow facility (flow/pressure) was calculated at the end of the experiment and compared to the initial baseline after the initial hour (pre-drug, both eyes received control perfusion medium for the first hour). The change in the experimental eye was compared to the change in the fellow control eye by a paired T-test. Control eyes were treated similarly except that an osmotically equivalent amount of sodium chloride was added to the perfusion medium in place of the drug. All perfusions were performed at 22° centigrade and the perfusion pressure was 15 mm of mercury.

| SMILES | increase in outflow facility at the end of the experiment versus initial baseline | increase in outflow facility at the end of the experiment versus initial baseline, drug plus cysteine |
| --- | --- | --- |
| O=C(O)COc1ccc(C(=O)c2cccs2)c(Cl)c1Cl [ticrynafen] | 102%±23% | 80%±9% |
| CC1(c2ccccc2)Cc2cc(OCC(=O)O)c(Cl)c(Cl)c2C1=O (stereo not shown) [indacrinone] | 113%±24% | 91%±8 |
